Data as given in EP4759810A1, “PROTAC TARGETING BCL-XL PROTEIN AND USE THEREOF” (BEIJING SUNCELL BIO-MEDICAL CO., LTD., priority 2023, dated 2025).
Where two headings read alike, the source gives them in different places.

Key:
[1] = test system: Molt-4 cells; assay: Molt-4 cell killing activity test (CCK-8); type: cell-based; settings: for activity for killing Molt-4 cells, in words: comparison with C1, the targeting ligand or control molecules; for killing Molt-4 cells at different concentrations (Figure 1), in words: 0.001-3 µM, comparison with control molecules
Procedure: Molt-4 cells were cultured and amplified in 10 cm dishes by using RPMI-1640 medium supplemented with 10% fetal bovine serum. Actively growing and healthy Molt-4 cells were collected, centrifuged at 1000 rpm for 5 minutes, and after removing the supernatant, the cells were resuspended in fresh RPMI-1640 medium containing 10% fetal bovine serum. Cell counting was then performed. The cell density was adjusted to 120,000 cells per milliliter, and 100 µL of the cell suspension was added to each well of a 96-well transparent cell culture plate. It was noted that the edge wells of the 96-well plate were not used for testing; and 300 µL of PBS alone was added to these wells to reduce medium evaporation.
The small molecule compounds to be tested for activity were prepared. A series of small molecule concentration gradients (0.001, 0.003, 0.01, 0.03, 0.1, 0.3, 1, and 3 µM) were pre-set, and a series of 2× drug dilutions for the above concentrations were prepared in RPMI-1640 medium containing 10% fetal bovine serum. 100 µL of the above medium containing the gradient concentrations of the drug was added to each well of a 96-well plate pre-seeded with cells, so that the final drug concentration in each well was the pre-set concentration gradient. Three replicate wells were used for each tested drug concentration. The 96-well plate was placed back in a 37°C incubator, and the cell viability was measured after three days.
The plate was taken out three days after adding the drugs, and 100 µL of pre-prepared CCK-8 working solution was added to each well. The CCK-8 working solution was obtained through diluting a CCK-8 stock solution (C0041, Beyotime) by 10-fold volumn with a serum-free RPMI-1640 medium. The 96-well plates with the added CCK-8 working solution were placed back in the 37°C incubator and incubated for 0.5-2 hours. The plates were then taken out, and the absorbance value (OD value) of each well was measured at a wavelength of 450 nm, and the cell viability in each experimental group was calculated according to the following formula: Relative cell viability (%) = […] × 100%.

[2] = Metabolic stability assay in liver microsomes (mouse); type: in vitro ADME; settings: mouse liver microsomes 0.5 mg/mL; 1 µM compound; 37°C
Procedure: (§1) The metabolic reaction of compounds in liver microsome was performed in a system with a total volume of 400 µL, and the following steps below were sequentially performed for the reaction and detection: 1) 200 µL of phosphate buffer (200 mM), 106 µL of sterile ultrapure water, and 40 µL of magnesium chloride solution (50 mM) were added to each detection tube to prepare a reaction working solution. 2) Two reaction systems with or without adding NADPH were prepared for each compound to be tested. For the reaction system with adding NADPH: 10 µL of liver microsomes (20 mg/mL) and 40 µL of NADPH (10 mM) were added to the above working solution; for the reaction system without adding NADPH: 10 µL of liver microsomes (20 mg/mL) and 40 µL of sterile ultrapure water were added to the above working solution. The final concentration of liver microsomes in both reaction systems was 0.5 mg/mL. 3) 4 µL of the compound to be tested ([…]) was added to each reaction tube, resulting in a final concentration of 1 µM for the compound in the reaction system. The detection tubes were placed at 37°C for reaction. 4) 50 µL samples were taken from each detection tube at 0, 15, 30, 45, and 60 minutes after adding the compound. The reaction was terminated by adding cold acetonitrile containing IS (100 nM alprazolam, 200 nM labetalol, 200 nM caffeine, and 2 µM ketoprofen) in a 4× volume. The samples were centrifuged at 3220 g for 40 minutes, 100 µL of the supernatant was mixed with 100 µL of ultrapure water, and a sample was taken for LC-MS/MS analysis.
(§2) Calculation of in vitro liver microsomal metabolic half-life and in vitro metabolic intrinsic clearance rate: The LC-MS detection results were analyzed to obtain the percentage of the remaining amount of the tested compound relative to the initial amount at each time point. The natural logarithm of the remaining percentage was linearly fitted against the incubation time.

[3] = Metabolic stability assay in liver microsomes (human); type: in vitro ADME; settings: human liver microsomes 0.5 mg/mL; 1 µM compound; 37°C
Procedure: as §1, §2

[4] = Homo sapiens, 72 h, Molt-4 cells, three days, CCK-8, read-out: EC50 (Molt-4)
[5] = Homo sapiens, Bcl-xL-positive Molt-4 cells, read-out: cellular activity / killing activity (Molt-4 cells)

| Structure (SMILES) | EC50 [1, 4] [nM] | activity for killing Molt-4 cells, in words [1] | other results |
| --- | --- | --- | --- |
| O=C1CCC(N2C(=O)c3cccc(NCCOCCOCCOCCOCCNC(=O)c4nc(N5CCc6cccc(C(=O)Nc7nc8ccccc8s7)c6C5)ccc4CCCOc4ccc(C#CCN5CCNCC5)cc4F)c3C2=O)C(=O)N1 (centres unmarked) [AF4] | > 1000 | lower killing activity or loss the function | – |
| Cc1c(-c2ccc(N3CCc4cccc(C(=O)Nc5nc6ccccc6s5)c4C3)nc2C(=O)NCCOCCOCCNc2cccc3c2C(=O)N(C2CCC(=O)NC2=O)C3=O)cnn1CC12CC3CC(CC(C3)C1)C2 (centres unmarked) [APF2] | < 10 | good cellular activity similar to those of the targeting ligand per se | – |
| Cc1c(-c2ccc(N3CCc4cccc(C(=O)Nc5nc6ccccc6s5)c4C3)nc2C(=O)NCCOCCOCCOCCNc2cccc3c2C(=O)N(C2CCC(=O)NC2=O)C3=O)cnn1CC12CC3CC(CC(C3)C1)C2 (centres unmarked) [APF3] | < 10 | good cellular activity similar to those of the targeting ligand per se | – |
| Cc1c(-c2ccc(N3CCc4cccc(C(=O)Nc5nc6ccccc6s5)c4C3)nc2C(=O)NCCOCCOCCOCCOCCNc2cccc3c2C(=O)N(C2CCC(=O)NC2=O)C3=O)cnn1CC12CC3CC(CC(C3)C1)C2 (centres unmarked) [APF4] | < 10 | good cellular activity similar to those of the targeting ligand per se | – |
| CN[C@@H](C)C(=O)N[C@H](C(=O)N1CCC[C@H]1c1nc(C(=O)c2cccc(OCCN3CCC(CN4CCN(CC#Cc5ccc(OCCCc6ccc(N7CCc8cccc(C(=O)Nc9nc%10ccccc%10s9)c8C7)nc6C(=O)O)c(F)c5)CC4)CC3)c2)cs1)C1CCCCC1 [APL-1] | 10 to 100 | – | – |
| Cc1ncsc1-c1ccc([C@H](C)NC(=O)[C@@H]2C[C@@H](O)CN2C(=O)[C@@H](NC(=O)CCN2CCC(CN3CCN(CC#Cc4ccc(OCCCc5ccc(N6CCc7cccc(C(=O)Nc8nc9ccccc9s8)c7C6)nc5C(=O)O)c(F)c4)CC3)CC2)C(C)(C)C)cc1 [APQ3] | 10 to 100 | – | – |
| O=C1CCN(c2ccc(N3CCN(C(=O)CCN4CCN(CC#Cc5ccc(OCCCc6ccc(N7CCc8cccc(C(=O)Nc9nc%10ccccc%10s9)c8C7)nc6C(=O)O)c(F)c5)CC4)CC3)cc2)C(=O)N1 [APQ5a] | < 10 | – | EC50 [1, 5]: < 10 nM |
| O=C1CCN(c2ccc(N3CCN(C(=O)CCCN4CCN(CC#Cc5ccc(OCCCc6ccc(N7CCc8cccc(C(=O)Nc9nc%10ccccc%10s9)c8C7)nc6C(=O)O)c(F)c5)CC4)CC3)cc2)C(=O)N1 [APQ5b] | 10 to 100 | – | – |
| O=C1CCN(c2ccc(N3CC(CN4CCN(CC#Cc5ccc(OCCCc6ccc(N7CCc8cccc(C(=O)Nc9nc%10ccccc%10s9)c8C7)nc6C(=O)O)c(F)c5)CC4)C3)cc2)C(=O)N1 [APQ6b] | 10 to 100 | – | – |
| O=C1CCN(c2ccc(N3CCN(C4CCN(CC#Cc5ccc(OCCCc6ccc(N7CCc8cccc(C(=O)Nc9nc%10ccccc%10s9)c8C7)nc6C(=O)O)c(F)c5)CC4)CC3)cc2)C(=O)N1 [APQ7a] | < 10 | – | killing Molt-4 cells at different concentrations (Figure 1), in words [1]: comparable to A-1331852; EC50 [1, 5]: < 10 nM |
| O=C1CCN(c2ccc(N3CCN(CC4CCN(CC#Cc5ccc(OCCCc6ccc(N7CCc8cccc(C(=O)Nc9nc%10ccccc%10s9)c8C7)nc6C(=O)O)c(F)c5)CC4)CC3)cc2)C(=O)N1 [APQ7b] | 10 to 100 | – | – |
| O=C1CCN(c2ccc(OCCN3CCC(CN4CCN(CC#Cc5ccc(OCCCc6ccc(N7CCc8cccc(C(=O)Nc9nc%10ccccc%10s9)c8C7)nc6C(=O)O)c(F)c5)CC4)CC3)cc2)C(=O)N1 [APQ8] | 10 to 100 | – | – |
| COC(=O)c1nc(N2CCc3cccc(C(=O)Nc4nc5ccccc5s4)c3C2)ccc1CCCOc1ccc(C#CCN2CCN(c3ccc(N4CCC(=O)NC4=O)cc3)CC2)cc1F [APQ9-1] | > 1000 | lower killing activity or loss the function | – |
| CC(C)(C)OC(=O)c1nc(N2CCc3cccc(C(=O)Nc4nc5ccccc5s4)c3C2)ccc1CCCOc1ccc(C#CCN2CCN(CC3CCN(c4ccc(N5CCC(=O)NC5=O)cc4)CC3)CC2)cc1F [APQ10-1] | > 1000 | lower killing activity or loss the function | – |
| O=C1CCC(n2nnc3ccc(NCCN4CCC(CN5CCN(CC#Cc6ccc(OCCCc7ccc(N8CCc9cccc(C(=O)Nc%10nc%11ccccc%11s%10)c9C8)nc7C(=O)O)c(F)c6)CC5)CC4)cc3c2=O)C(=O)N1 (centres unmarked) [APQ11] | < 10 | – | killing Molt-4 cells at different concentrations (Figure 1), in words [1]: comparable to A-1331852; EC50 [1, 5]: < 10 nM |
| COc1cc(N2CCN(CC#Cc3ccc(OCCCc4ccc(N5CCc6cccc(C(=O)Nc7nc8ccccc8s7)c6C5)nc4C(=O)O)c(F)c3)CC2)ccc1N1CCC(=O)NC1=O [APQ902a] | < 10 | – | EC50 [1, 5]: < 10 nM |
| Cc1c(-c2ccc(N3CCc4cccc(C(=O)Nc5nc6ccccc6s5)c4C3)nc2C(=O)NCCn2cc(COCCNc3cccc4c3C(=O)N(C3CCC(=O)NC3=O)C4=O)nn2)cnn1CC12CC3CC(CC(C3)C1)C2 (centres unmarked) [APR1] | < 10 | good cellular activity similar to those of the targeting ligand per se | – |
| Cc1c(-c2ccc(N3CCc4cccc(C(=O)Nc5nc6ccccc6s5)c4C3)nc2C(=O)NCCn2cc(COCCOCCNc3cccc4c3C(=O)N(C3CCC(=O)NC3=O)C4=O)nn2)cnn1CC12CC3CC(CC(C3)C1)C2 (centres unmarked) [APR2] | < 10 | good cellular activity similar to those of the targeting ligand per se | – |
| Cc1c(-c2ccc(N3CCc4cccc(C(=O)Nc5nc6ccccc6s5)c4C3)nc2C(=O)NCCn2cc(COCCOCCOCCNc3cccc4c3C(=O)N(C3CCC(=O)NC3=O)C4=O)nn2)cnn1CC12CC3CC(CC(C3)C1)C2 (centres unmarked) [APR3] | < 10 | good cellular activity similar to those of the targeting ligand per se | – |
| Cc1c(-c2ccc(N3CCc4cccc(C(=O)Nc5nc6ccccc6s5)c4C3)nc2C(=O)NCCn2cc(COCCOCCOCCOCCNc3cccc4c3C(=O)N(C3CCC(=O)NC3=O)C4=O)nn2)cnn1CC12CC3CC(CC(C3)C1)C2 (centres unmarked) [APR4] | < 10 | good cellular activity similar to those of the targeting ligand per se | – |
| [2H]C1([2H])Cc2cccc(C(=O)Nc3nc4ccccc4s3)c2CN1c1ccc(-c2cnn(CC34CC5CC(CC(C5)C3)C4)c2C)c(C(=O)NCCOCCOCCOCCNc2cccc3c2C(=O)N(C2CCC(=O)NC2=O)C3=O)n1 (centres unmarked) [Compound A13D6-PF3] | < 10 | good cellular activity similar to those of the targeting ligand per se | – |
| [2H]c1c([2H])c([2H])c2sc(NC(=O)c3cccc4c3CN(c3ccc(-c5cnn(CC67CC8CC(CC(C8)C6)C7)c5C)c(C(=O)O)n3)CC4)nc2c1[2H] [Compound A13D-1] | – | – | Clint [2]: 266.89 µL/min/mg protein; T1/2 [2]: 5.19 min; Clint [3]: 235.82 µL/min/mg protein; T1/2 [3]: 5.88 min |
| [2H]C1([2H])c2c(C(=O)Nc3nc4ccccc4s3)cccc2C([2H])([2H])C([2H])([2H])N1c1ccc(-c2cnn(CC34CC5CC(CC(C5)C3)C4)c2C)c(C(=O)O)n1 [Compound A13D-2] | – | – | Clint [2]: 18.15 µL/min/mg protein; T1/2 [2]: 76.36 min; Clint [3]: 55.31 µL/min/mg protein; T1/2 [3]: 25.06 min |
| CN(C)CC#Cc1ccc(OCCCc2sc(N3CCc4cccc(C(=O)Nc5nc6ccccc6s5)c4C3)nc2C(=O)O)c(F)c1 [Compound A-1155463, reference compound] | – | – | EC50 ([1]; Molt-4 cells, three days, CCK-8, read-out: EC50 (Molt-4)): < 10 nM |
